Data from ChEMBL document CHEMBL1152361, “The application of phosphoramidate ProTide technology to the potent anti-HCV compound 4'-azidocytidine (R1479)” (Bioorg Med Chem Lett, 2009).

These compounds were tested on Hepatitis C virus (assay: Antiviral activity against HCV Con1 GT1b at 100 uM by replicon assay). Conditions: not given.
Assay type: functional, Hepacivirus hominis

| Structure (SMILES) | inhibition at 100 µM [%] |
| --- | --- |
| CCOC(=O)C1(NP(=O)(OC[C@@]2(N=[N+]=[N-])O[C@@H](n3ccc(N)nc3=O)[C@H](O)[C@@H]2O)Oc2ccccc2)CCCC1 (some centres not stated) | 69 |
| CC(C)C[C@@H](NP(=O)(OC[C@@]1(N=[N+]=[N-])O[C@@H](n2ccc(N)nc2=O)[C@H](O)[C@@H]1O)Oc1ccccc1)C(=O)OCc1ccccc1 (some centres not stated) | 88 |
| CCOC(=O)CCNP(=O)(OC[C@@]1(N=[N+]=[N-])O[C@@H](n2ccc(N)nc2=O)[C@H](O)[C@@H]1O)Oc1ccccc1 (some centres not stated) | 77 |
| [N-]=[N+]=N[C@]1(COP(=O)(N[C@@H](Cc2ccccc2)C(=O)OCc2ccccc2)Oc2ccccc2)O[C@@H](n2ccc(N)nc2=O)[C@H](O)[C@@H]1O (some centres not stated) | 89 |
| CCOC(=O)CN(C)P(=O)(OC[C@@]1(N=[N+]=[N-])O[C@@H](n2ccc(N)nc2=O)[C@H](O)[C@@H]1O)Oc1ccccc1 (some centres not stated) | 72 |

Each compound was assayed on Hepatitis C virus (assay: Antiviral activity against HCV Con1 GT1b by replicon assay). Conditions: not given.
Assay type: functional, organism-based, Hepacivirus hominis

| Structure (SMILES) | EC50 [µM] |
| --- | --- |
| CC(C)OC(=O)CNP(=O)(OC[C@@]1(N=[N+]=[N-])O[C@@H](n2ccc(N)nc2=O)[C@H](O)[C@@H]1O)Oc1ccccc1 (some centres not stated) | 4.5 |
| C[C@H](NP(=O)(OC[C@@]1(N=[N+]=[N-])O[C@@H](n2ccc(N)nc2=O)[C@H](O)[C@@H]1O)Oc1ccc2ccccc2c1)C(=O)OCc1ccccc1 (single isomer, unassigned; diastereomer 1) | 4.3 |
| CC(C)OC(=O)CNP(=O)(OC[C@@]1(N=[N+]=[N-])O[C@@H](n2ccc(N)nc2=O)[C@H](O)[C@@H]1O)Oc1ccccc1 (single isomer, unassigned; Diastereomer 1) | 15 |
| C[C@H](NP(=O)(OC[C@@]1(N=[N+]=[N-])O[C@@H](n2ccc(N)nc2=O)[C@H](O)[C@@H]1O)Oc1cccc2ccccc12)C(=O)OCc1ccccc1 (some centres not stated) | 0.95 |

Same assay, conditions: Hepatitis C virus, Con1 GT1b

| Structure (SMILES) | EC50 [µM] | IC50 [µM] |
| --- | --- | --- |
| C[C@H](NP(=O)(OC[C@@]1(N=[N+]=[N-])O[C@@H](n2ccc(N)nc2=O)[C@H](O)[C@@H]1O)Oc1ccc(Cl)cc1)C(=O)OCc1ccccc1 (some centres not stated) | 6.2 | – |
| CCOC(=O)[C@H](CCSC)NP(=O)(OC[C@@]1(N=[N+]=[N-])O[C@@H](n2ccc(N)nc2=O)[C@H](O)[C@@H]1O)Oc1ccccc1 (some centres not stated) | 18 | – |
| CCOC(=O)[C@H](CC(C)C)NP(=O)(OC[C@@]1(N=[N+]=[N-])O[C@@H](n2ccc(N)nc2=O)[C@H](O)[C@@H]1O)Oc1ccccc1 (some centres not stated) | 11 | – |
| CCOC(=O)[C@@H](NP(=O)(OC[C@@]1(N=[N+]=[N-])O[C@@H](n2ccc(N)nc2=O)[C@H](O)[C@@H]1O)Oc1ccccc1)[C@@H](C)CC (some centres not stated) | > 100 | – |
| CCOC(=O)[C@H](CC(C)C)NP(=O)(OC[C@@]1(N=[N+]=[N-])O[C@@H](n2ccc(N)nc2=O)[C@H](O)[C@@H]1O)Oc1ccc(OC)cc1 (some centres not stated) | 9.3 | – |
| CCOC(=O)C1(NP(=O)(OC[C@@]2(N=[N+]=[N-])O[C@@H](n3ccc(N)nc3=O)[C@H](O)[C@@H]2O)Oc2ccccc2)CCCC1 (some centres not stated) | – | 56 |
| C[C@@H](NP(=O)(OC[C@@]1(N=[N+]=[N-])O[C@@H](n2ccc(N)nc2=O)[C@H](O)[C@@H]1O)Oc1ccccc1)C(=O)OC(C)(C)C (some centres not stated) | > 100 | – |
| [N-]=[N+]=N[C@]1(CO)O[C@@H](n2ccc(N)nc2=O)[C@H](O)[C@@H]1O [4'-AZIDOCYTIDINE] | 1.28 | – |
| C[C@H](NP(=O)(OC[C@@]1(N=[N+]=[N-])O[C@@H](n2ccc(N)nc2=O)[C@H](O)[C@@H]1O)Oc1ccccc1Cl)C(=O)OCc1ccccc1 (some centres not stated) | 3.5 | – |
| COc1cccc(OP(=O)(N[C@@H](C)C(=O)OCc2ccccc2)OC[C@@]2(N=[N+]=[N-])O[C@@H](n3ccc(N)nc3=O)[C@H](O)[C@@H]2O)c1 (some centres not stated) | 8.8 | – |
| C[C@H](NP(=O)(OC[C@@]1(N=[N+]=[N-])O[C@@H](n2ccc(N)nc2=O)[C@H](O)[C@@H]1O)Oc1ccc(Br)cc1)C(=O)OCc1ccccc1 (some centres not stated) | 6.5 | – |
| CCOC(=O)[C@H](C)NP(=O)(OC[C@@]1(N=[N+]=[N-])O[C@@H](n2ccc(N)nc2=O)[C@H](O)[C@@H]1O)Oc1ccccc1 (some centres not stated) | 0.38 | – |
| CC(C)[C@H](NP(=O)(OC[C@@]1(N=[N+]=[N-])O[C@@H](n2ccc(N)nc2=O)[C@H](O)[C@@H]1O)Oc1ccccc1)C(=O)OCc1ccccc1 (some centres not stated) | 5.6 | – |
| Cc1ccccc1OP(=O)(N[C@@H](C)C(=O)OCc1ccccc1)OC[C@@]1(N=[N+]=[N-])O[C@@H](n2ccc(N)nc2=O)[C@H](O)[C@@H]1O (some centres not stated) | 1.3 | – |
| C[C@H](NP(=O)(OC[C@@]1(N=[N+]=[N-])O[C@@H](n2ccc(N)nc2=O)[C@H](O)[C@@H]1O)Oc1ccccc1)C(=O)OC(C)(C)C (some centres not stated) | 0.72 | – |
| CCOC(=O)[C@H](CC(C)C)NP(=O)(OC[C@@]1(N=[N+]=[N-])O[C@@H](n2ccc(N)nc2=O)[C@H](O)[C@@H]1O)Oc1ccc(C)cc1 (some centres not stated) | 4.3 | – |
| CC(C)(NP(=O)(OC[C@@]1(N=[N+]=[N-])O[C@@H](n2ccc(N)nc2=O)[C@H](O)[C@@H]1O)Oc1ccccc1)C(=O)OCc1ccccc1 (some centres not stated) | 9.2 | – |
| C[C@H](NP(=O)(OC[C@@]1(N=[N+]=[N-])O[C@@H](n2ccc(N)nc2=O)[C@H](O)[C@@H]1O)Oc1cccc(Cl)c1)C(=O)OCc1ccccc1 (some centres not stated) | 3.7 | – |
| CCOC(=O)[C@@H]1CCCN1P(=O)(OC[C@@]1(N=[N+]=[N-])O[C@@H](n2ccc(N)nc2=O)[C@H](O)[C@@H]1O)Oc1ccccc1 (some centres not stated) | > 100 | – |
| CC(C)OC(=O)C(C)(C)NP(=O)(OC[C@@]1(N=[N+]=[N-])O[C@@H](n2ccc(N)nc2=O)[C@H](O)[C@@H]1O)Oc1ccccc1 (some centres not stated) | 3.1 | – |
| CCOC(=O)[C@H](Cc1ccccc1)NP(=O)(OC[C@@]1(N=[N+]=[N-])O[C@@H](n2ccc(N)nc2=O)[C@H](O)[C@@H]1O)Oc1ccccc1 (some centres not stated) | 11 | – |
| C[C@H](NP(=O)(OC[C@@]1(N=[N+]=[N-])O[C@@H](n2ccc(N)nc2=O)[C@H](O)[C@@H]1O)Oc1ccc(Cl)c(Cl)c1)C(=O)OCc1ccccc1 (some centres not stated) | 9.2 | – |
| CC(C)C[C@@H](NP(=O)(OC[C@@]1(N=[N+]=[N-])O[C@@H](n2ccc(N)nc2=O)[C@H](O)[C@@H]1O)Oc1ccccc1)C(=O)OCc1ccccc1 (some centres not stated) | – | 4.2 |
| CCOC(=O)[C@H](CC(C)C)NP(=O)(OC[C@@]1(N=[N+]=[N-])O[C@@H](n2ccc(N)nc2=O)[C@H](O)[C@@H]1O)Oc1ccc(Cl)c(Cl)c1 (some centres not stated) | 2.3 | – |

| Structure (SMILES) | EC50 [µM] | IC50 [µM] |
| --- | --- | --- |
| Cc1ccc(OP(=O)(N[C@@H](C)C(=O)OCc2ccccc2)OC[C@@]2(N=[N+]=[N-])O[C@@H](n3ccc(N)nc3=O)[C@H](O)[C@@H]2O)cc1 (some centres not stated) | 0.51 | – |
| CCOC(=O)[C@H](CC(C)C)NP(=O)(OC[C@@]1(N=[N+]=[N-])O[C@@H](n2ccc(N)nc2=O)[C@H](O)[C@@H]1O)Oc1ccc(Cl)cc1 (some centres not stated) | 2.5 | – |
| CCOC(=O)[C@H](C)NP(=O)(OC[C@@]1(N=[N+]=[N-])O[C@@H](n2ccc(N)nc2=O)[C@H](O)[C@@H]1O)Oc1c(OC)cccc1OC (some centres not stated) | 4.1 | – |
| [N-]=[N+]=N[C@]1(COP(=O)(NCC(=O)OCc2ccccc2)Oc2ccccc2)O[C@@H](n2ccc(N)nc2=O)[C@H](O)[C@@H]1O (some centres not stated) | 2.1 | – |
| CCOC(=O)CCNP(=O)(OC[C@@]1(N=[N+]=[N-])O[C@@H](n2ccc(N)nc2=O)[C@H](O)[C@@H]1O)Oc1ccccc1 (some centres not stated) | – | 47 |
| CC(C)OC(=O)[C@H](C)NP(=O)(OC[C@@]1(N=[N+]=[N-])O[C@@H](n2ccc(N)nc2=O)[C@H](O)[C@@H]1O)Oc1ccccc1 (some centres not stated) | 0.99 | – |
| C[C@H](NP(=O)(OC[C@@]1(N=[N+]=[N-])O[C@@H](n2ccc(N)nc2=O)[C@H](O)[C@@H]1O)Oc1ccccc1)C(=O)Oc1ccccc1 (some centres not stated) | 2.9 | – |
| [N-]=[N+]=N[C@]1(COP(=O)(N[C@@H](Cc2ccccc2)C(=O)OCc2ccccc2)Oc2ccccc2)O[C@@H](n2ccc(N)nc2=O)[C@H](O)[C@@H]1O (some centres not stated) | – | 7.7 |
| CCCCCCCCCCCCOC(=O)[C@@H](C)NP(=O)(OC[C@@]1(N=[N+]=[N-])O[C@@H](n2ccc(N)nc2=O)[C@H](O)[C@@H]1O)Oc1ccccc1 (some centres not stated) | 30 | – |
| CCOC(=O)CN(C)P(=O)(OC[C@@]1(N=[N+]=[N-])O[C@@H](n2ccc(N)nc2=O)[C@H](O)[C@@H]1O)Oc1ccccc1 (some centres not stated) | – | 48 |
| CCOC(=O)[C@@H](C)NP(=O)(OC[C@@]1(N=[N+]=[N-])O[C@@H](n2ccc(N)nc2=O)[C@H](O)[C@@H]1O)Oc1ccccc1 (some centres not stated) | 2.3 | – |
| C[C@@H](NP(=O)(OC[C@@]1(N=[N+]=[N-])O[C@@H](n2ccc(N)nc2=O)[C@H](O)[C@@H]1O)Oc1ccccc1)C(=O)OCc1ccccc1 (some centres not stated) | 2.2 | – |
| COc1ccccc1OP(=O)(N[C@@H](C)C(=O)OCc1ccccc1)OC[C@@]1(N=[N+]=[N-])O[C@@H](n2ccc(N)nc2=O)[C@H](O)[C@@H]1O (some centres not stated) | 2.3 | – |
| CCCCOC(=O)[C@H](C)NP(=O)(OC[C@@]1(N=[N+]=[N-])O[C@@H](n2ccc(N)nc2=O)[C@H](O)[C@@H]1O)Oc1ccccc1 (some centres not stated) | 11 | – |
| CCC(C)OC(=O)[C@H](C)NP(=O)(OC[C@@]1(N=[N+]=[N-])O[C@@H](n2ccc(N)nc2=O)[C@H](O)[C@@H]1O)Oc1ccccc1 (some centres not stated) | 0.62 | – |
| CC(C)OC(=O)[C@H](Cc1ccccc1)NP(=O)(OC[C@@]1(N=[N+]=[N-])O[C@@H](n2ccc(N)nc2=O)[C@H](O)[C@@H]1O)Oc1ccccc1 (some centres not stated) | 2.9 | – |
| C[C@H](NP(=O)(OC[C@@]1(N=[N+]=[N-])O[C@@H](n2ccc(N)nc2=O)[C@H](O)[C@@H]1O)Oc1ccc2ccccc2c1)C(=O)OCc1ccccc1 (single isomer, unassigned; diastereomer 2) | 2.9 | – |
| C[C@H](NP(=O)(OC[C@@]1(N=[N+]=[N-])O[C@@H](n2ccc(N)nc2=O)[C@H](O)[C@@H]1O)Oc1ccccc1)C(=O)OCc1ccccc1 (some centres not stated) | 6 | – |
| CCCCOC(=O)[C@@H](C)NP(=O)(OC[C@@]1(N=[N+]=[N-])O[C@@H](n2ccc(N)nc2=O)[C@H](O)[C@@H]1O)Oc1ccccc1 (some centres not stated) | 0.94 | – |
| COC(=O)[C@H](C)NP(=O)(OC[C@@]1(N=[N+]=[N-])O[C@@H](n2ccc(N)nc2=O)[C@H](O)[C@@H]1O)Oc1ccccc1 (some centres not stated) | 3.1 | – |
| CC(C)C[C@H](NP(=O)(OC[C@@]1(N=[N+]=[N-])O[C@@H](n2ccc(N)nc2=O)[C@H](O)[C@@H]1O)Oc1ccccc1)C(=O)OC(C)C (some centres not stated) | > 100 | – |
| C[C@H](NP(=O)(OC[C@@]1(N=[N+]=[N-])O[C@@H](n2ccc(N)nc2=O)[C@H](O)[C@@H]1O)Oc1cccc2ccccc12)C(=O)OCc1ccccc1 (single isomer, unassigned; diastereomer 2) | 1.2 | – |
| CCOC(=O)[C@H](C)NP(=O)(OC[C@@]1(N=[N+]=[N-])O[C@@H](n2ccc(N)nc2=O)[C@H](O)[C@@H]1O)Oc1ccc(C)cc1 (some centres not stated) | 2.9 | – |
| COc1ccc(OP(=O)(N[C@@H](C)C(=O)OCc2ccccc2)OC[C@@]2(N=[N+]=[N-])O[C@@H](n3ccc(N)nc3=O)[C@H](O)[C@@H]2O)cc1 (some centres not stated) | > 100 | – |
